Read-outs that look alike come from different tables or passages of the source.
Experiments:
[1] = Toxicokinetics of TXA in plasma after subcutaneous injection; assay type: in vivo, beagle dog
Description: (§1) The objectives of this study were to determine the potential toxicity of TXA formulations, when given by subcutaneous injection to the beagle dog and to evaluate the potential reversibility of any findings, in comparison to the Reference Control Item, Tranexamic acid. In addition, the toxicokinetic profiles were determined.
(§2) The Test, Reference Control and Reference Items were administered to the appropriate animals via subcutaneous injection into the scapular and mid-dorsal areas on Days 1, 4, 7, and 10. The dose volume for each animal was based on the most recent body weight measurement. The volume for each dose was administered using a syringe/needle over one injection. Injection sites were rotated between two delimited sites (and the same site for all animals on a given day). Dosing area was shaved as needed and injection sites were marked with a pen (target area of 5 cm×5 cm). The first dosing site was in the mid-scapular region of the back and the second dosing site was caudal to the first site in the mid-dorsum region.
Blood was collected from the jugular vein (or cephalic vein) from all animals in lithium heparin-containing tubes.
Samples were mixed gently and placed on crushed wet ice until centrifugation, which was carried out as soon as practical. The samples were centrifuged for 10 minutes in a refrigerated centrifuge (set to maintain the temperature at 4° C.) at 2700 rpm. The resultant plasma was separated, transferred to uniquely labeled clear polypropylene tubes, and frozen immediately over dry ice and transferred to a freezer set to maintain −80° C.
Plasma samples were analyzed for concentration of the tranexamic acid using a validated analytical procedure.
Toxicokinetic parameters were generated from the test item (tranexamic acid) individual concentrations in plasma from Days 1 and 10, whenever practical.

beagle dog = test: Evaluation of toxicity of subcutaneous administration; assay type: in vivo; conditions: sc
Description: as §1
21 male and 21 female beagle dogs were used in this study. The animals were from 6 to 7 months old and weighed between 7.5 and 9.8 kg (males) and 6.0 and 8.2 kg (females) at initiation of dosing.
as §2
Blood was collected from the jugular vein. Urine was collected overnight from individually housed animals. […]

[2] = Percent free (unencapsulated) TXA in the formulation; assay type: physicochemical; conditions: formulations dosed in the rat PK study (Table 2)
Text: The present embodiments provide pharmaceutical formulations comprising multivesicular liposomes (MVLs) containing tranexamic acid (TXA) which minimize the side effects of TXA while maintaining or improving efficacy and lengthening the duration of the effect. The present embodiments also provide pharmaceutical formulations comprising TXA encapsulated in the MVLs and unencapsulated TXA. The term “unencapsulated” as used herein, means that the biologically active ingredient (e.g., tranexamic acid) is outside the MVL particles, for example, in the suspending solution. The unencapsulated TXA provides immediate efficacy of TXA while the use of TXA encapsulated MVLs formulations in the instant embodiments results in the release of TXA for an extended period. The processes of preparing the DEPO-TXAs and the methods of using the DEPO-TXA formulations for treating, ameliorating, or preventing blood loss are also disclosed herewith. […]
For the 40 mg/mL formulation, % PPV is about 50.0% and the assumed interstitial volume (mL) is about 20%, rendering about 62% free TXA outside of the multivesicular liposomes. […] During the first 12 h, the released TXA contributes to the initial TXA peak measured in the plasma. […]

In the case of `NC[C@H]1CC[C@H](C(=O)O)CC1` [TXA, tranexamic acid], the “mean peak exposures (Cmax) higher for the free TXA group than DepoTXA” value ([1]; 120 mg/kg dose level, Day 1) is reported as 28%, the “peak TXA levels lower for the free TXA group than DepoTXA” value ([1]; 120 mg/kg dose level, Day 10, after fourth and final sc dose) is reported as 14% and the “administered TXA cleared after 12 hours (percent of total AUC)” value ([1]; beagle dog, sc, FIGS. 5A, 5B) is reported as 94%. For the same compound, the “time to exposure to nearly the full TXA dose” value ([1]; beagle dog, sc, FIGS. 6A, 6B) was “less than 24 hours”, the AUC(0-t) ([1]; beagle, dog, plasma, sc, 120 mg/kg, beagle dog, sc, 120 mg/kg/dose, Day 1, read-out: AUC0-72) was 490 µg·h/mL and the Cmax ([1]; beagle, dog, plasma, sc, 120 mg/kg, beagle dog, sc, 120 mg/kg/dose, Day 1, read-out: Cmax) was 140 µg/mL. For the same compound, the Tmax ([1]; beagle, dog, plasma, sc, 120 mg/kg, beagle dog, sc, 120 mg/kg/dose, Day 1, read-out: Tmax) was 1.2 h, the half-life ([1]; beagle, dog, plasma, sc, 120 mg/kg, beagle dog, sc, 120 mg/kg/dose, Day 1, read-out: t1/2 (converted)) was 25.7 h and the AUC(0-t) ([1]; beagle, dog, plasma, sc, 120 mg/kg, beagle dog, sc, 120 mg/kg/dose, Day 10, read-out: AUC0-72) was 484 µg·h/mL. For the same compound, the Cmax ([1]; beagle, dog, plasma, sc, 120 mg/kg, beagle dog, sc, 120 mg/kg/dose, Day 10, read-out: Cmax) was 119 µg/mL, the Tmax ([1]; beagle, dog, plasma, sc, 120 mg/kg, beagle dog, sc, 120 mg/kg/dose, Day 10, read-out: Tmax) was 1.1 h and the half-life ([1]; beagle, dog, plasma, sc, 120 mg/kg, beagle dog, sc, 120 mg/kg/dose, Day 10, read-out: t1/2 (converted)) was 28.9 h. It also gave a half-life ([1]; beagle, dog, plasma, sc, 120 mg/kg, mean±SD, sc, 120 mg/kg, Day 1, read-out: Mean terminal elimination half-life (t1/2elim) (converted)) of 25.7 ± 2 h, a half-life ([1]; beagle, dog, plasma, sc, 120 mg/kg, mean±SD, sc, 120 mg/kg, Day 10, read-out: Mean terminal elimination half-life (t1/2elim) (converted)) of 28.9 ± 2.9 h and a Cmax ([1]; both sexes, beagle, dog, plasma, sc, 120 mg/kg, genders combined mean, sc, 120 mg/kg, Day 10, read-out: mean peak levels (Cmax)) of 119 ± 15.4 µg/mL. The AUC(0-t) ([1]; both sexes, beagle, dog, plasma, sc, 120 mg/kg, mean±SD, n=10, genders combined, sc, 120 mg/kg, Day 1, read-out: AUC0-24) was 475 ± 35.1 µg·h/mL, the AUC(0-t) ([1]; both sexes, beagle, dog, plasma, sc, 120 mg/kg, mean±SD, n=10, genders combined, sc, 120 mg/kg, Day 1, read-out: AUC0-48) was 485 ± 36.1 µg·h/mL and the AUC(0-t) ([1]; both sexes, beagle, dog, plasma, sc, 120 mg/kg, mean±SD, n=10, genders combined, sc, 120 mg/kg, Day 1, read-out: AUC0-72) was 490 ± 36.5 µg·h/mL. For the same compound, the Tmax ([1]; both sexes, beagle, dog, plasma, sc, 120 mg/kg, mean±SD, n=10, genders combined, sc, 120 mg/kg, Day 1, read-out: Tmax (plasma concentrations of TXA peaked)) was 1.2 ± 0.42 h, the Cmax ([1]; both sexes, beagle, dog, plasma, sc, 120 mg/kg, mean±SD, n=10, genders combined, sc, 120 mg/kg, Day 1, read-out: mean peak levels (Cmax)) was 140 ± 19.2 µg/mL and the AUC(0-t) ([1]; both sexes, beagle, dog, plasma, sc, 120 mg/kg, mean±SD, n=10, genders combined, sc, 120 mg/kg, Day 10, read-out: AUC0-24) was 468 ± 42.5 µg·h/mL. For the same compound, the AUC(0-t) ([1]; both sexes, beagle, dog, plasma, sc, 120 mg/kg, mean±SD, n=10, genders combined, sc, 120 mg/kg, Day 10, read-out: AUC0-48) was 479 ± 44.2 µg·h/mL, the AUC(0-t) ([1]; both sexes, beagle, dog, plasma, sc, 120 mg/kg, mean±SD, n=10, genders combined, sc, 120 mg/kg, Day 10, read-out: AUC0-72) was 484 ± 45.2 µg·h/mL and the Tmax ([1]; both sexes, beagle, dog, plasma, sc, 120 mg/kg, mean±SD, n=10, genders combined, sc, 120 mg/kg, Day 10, read-out: Tmax (mean peak concentrations reached)) was 1.1 ± 0.32 h. The AUC(0-inf) ([1]; both sexes, beagle, dog, plasma, mean±SD, n=10, genders combined, sc, 120 mg/kg, Day 1) was 495 ± 36.8 µg·h/mL, the “clinical signs following dosing” value (beagle dog) was “at a similar incidence and severity” and the “Percent free TXA” value [2] was 100%.

Reference: US20160206580A1, “[…] LIPOSOME FORMULATIONS OF TRANEXAMIC ACID” (Pacira Pharmaceuticals, Inc., priority 2015, published 2016)
